Experimental data from paper PMC6201295 (Leukemia & lymphoma, 2018).
Where two headings read alike, the source gives them in different places. One block for each compound: values may come before it.

Tests used:
[1] = cited from earlier work
[2] = test system: CYP2C8; settings: liver microsome CYP2C8; cited from earlier work
[3] = Plasma pharmacokinetics of dasatinib in study patients
[4] = test system: CYP3A4; settings: liver microsome CYP3A4; cited from earlier work
[5] = Plasma pharmacokinetics of ATRA in study patients; assay type: in vivo; settings: human, oral, 22.5 mg/m2
[6] = test system: non-APL AML blast cells; settings: blasts from more than half of 23 non-APL AML patients; cited from earlier work
[7] = test system: CYP2E1; settings: cited from earlier work
[8] = test system: NAT; settings: cited from earlier work
[9] = between- and within patient variability

SMILES: Cc1nc(Nc2ncc(C(=O)Nc3c(C)cccc3Cl)s2)cc(N2CCN(CCO)CC2)n1 [Dasatinib]
Cmax ([1]; after a 100 mg dose, (SD)): 56 (SD 66) ng/mL | time of Cmax ([1]; after a 100 mg dose): […] | coefficient of variation of AUC [1, 9]: […] | coefficient of variation of Cmax [1, 9]: […] | Ki [2]: […] | increase in dasatinib exposure ([3]; 2 patients, after a month of combination therapy): ~50% | Cmax ([3]; dasatinib 100 mg, with ATRA, mean (SD), N=3): […] | Vd ([3]; human, plasma, oral): […] | clearance ([3]; human, plasma, oral): […] | half-life ([3]; human, plasma, oral): 168 min | AUC(0-inf) ([3]; human, plasma, oral, 70 mg): […] | AUC(0-t) ([3]; human, plasma, oral, 70 mg): […] | Cmax ([3]; human, plasma, oral, 70 mg): 77 ng/mL | Vd ([3]; human, plasma, oral, 70 mg): 2310 L | clearance ([3]; human, plasma, oral, 70 mg): […] | half-life ([3]; human, plasma, oral, 70 mg): 174 min | Tmax ([3]; human, plasma, oral, 70 mg, dasatinib 70 mg, with ATRA, mean (SD), N=6): 1.7 h | AUC(0-inf) ([3]; human, plasma, oral, 100 mg): 434 ng·h/mL | AUC(0-t) ([3]; human, plasma, oral, 100 mg): […] | Vd ([3]; human, plasma, oral, 100 mg): […] | clearance ([3]; human, plasma, oral, 100 mg): 3920 mL/min | Tmax ([3]; human, plasma, oral, 100 mg, dasatinib 100 mg, with ATRA, mean (SD), N=3): […] | Ki [4]: […]

AUC(0-inf) [5]: 594 ng·h/mL | AUC(0-t) [5]: 578 ng·h/mL | Cmax [5]: 277 ng/mL | Tmax [5]: 1.6 h | Vd [5]: 101 L | clearance [5]: 737 mL/min | half-life [5]: 48.6 min
SMILES: CC1=C(/C=C/C(C)=C/C=C/C(C)=C/C(=O)O)C(C)(C)CCC1 [ATRA, all-trans retinoic acid]
sensitivity of blasts to ATRA in vitro [6]: moderately sensitive | increase of the activity of CYP2E1 [7]: 83% | increase of the activity of NAT [8]: 29%
